According to the OPERA property sets (Mansouri et al. 2018):
Values after ≈ are worked out from the molar mass of the structure shown. Where a SMILES comes first, the peptide text is derived from it. The star is where a group is joined. NHtBu = CC(C)(C)N*

With `Fc1ccc(C2=CCNCC2)cc1` the logP was 2.37. With `CC(C)(C)[C@@H](O)[C@@H](Cc1ccc(Cl)cc1)n1cncn1` (single isomer, unassigned) the logP was 3.2. `CC(=O)/C=C/C1C(C)=CCCC1(C)C` (centres undefined) showed a solubility of 551 µM (≈ 106 µg/mL). `Oc1ncnc2[nH]ncc12` showed a logP of -0.55. With `Cc1c(Cl)cccc1[N+](=O)[O-]` the logP was 3.09. In the case of `Cc1cc(Cl)c(C(C)C)cc1Cl`, the logP is reported as 5.6. Compound `CC(C)n1ccc(=O)c(O)c1` has a logP of -0.02. Work on `CC(=O)N[C@H](C(=O)N[C@@H](C)C(N)=O)C(C)C` (Ac-Val-Ala-NH2) yielded a logP of -1.14. For `CCc1c(O)c(=O)ccn1C`, the logP was -0.2. `c1ccc2c(c1)sc1ccccc12` showed a solubility of 7.98 µM (≈ 1.47 µg/mL). Compound `CCCCCCCCCCCCCCCCCCCCCC(=O)O` has a solubility of 0.047 µM (≈ 0.016 µg/mL). In the case of `CC(C)CN(CC(C)C)N=O`, the logP is reported as 2.34. For `CCCCOC(=O)c1ccccc1C(=O)OCCCC`, the logP was 4.5. `Oc1ccc(C2CNCCc3c2cc(O)c(O)c3Cl)cc1` (centres undefined) showed a logP of 2.39. In the case of `COC(=O)C(C)Oc1ccc(Oc2ccc(Cl)cc2Cl)cc1` (centres undefined), the logP is reported as 4.62. For `OCc1cccc(I)c1`, the logP was 2.55. In the case of `CCCCOC(=O)C(N)Cc1ccc(O)cc1` (centres undefined), the logP is reported as 1.8. With `N#CC(C#N)=Cc1ccco1` the logP was 1.4. `CC(=O)NC(C)C(=O)NC(CC(=O)O)C(=O)NC(C)(C)C` (stereo not drawn) (Ac-Ala-Asp-NHtBu; configuration not given here) showed a logP of -0.74. With `CCCCNC(=O)n1cc(F)c(=O)[nH]c1=O` the solubility was 3580 µM (≈ 820 µg/mL). With `O=C1c2ccccc2C(=O)N1SC1CCCCC1` the logP was 3.66. `Cc1cc(C)nc(NC(=O)NS(=O)(=O)c2ccccc2C(=O)OC2COC2)n1` showed a logP of 1.1. `N#CCC#N` showed a logP of -0.6. Work on `O=[N+]([O-])c1cc(C(F)F)c(Nc2ncc(C(F)(F)F)cc2Cl)c([N+](=O)[O-])c1` yielded a logP of 3.52. `Cc1ccc(C)c(NCc2cnc3nc(N)nc(N)c3c2C)c1` gave a logP of 2.29. `CCNC(=S)NCC` gave a logP of 0.57. Compound `O=C1OC(c2ccc(O)cc2)(c2ccc(O)cc2)c2ccccc21` has a logP of 2.89. Work on `CCCOC(=O)c1ccccc1O` yielded a logP of 3.8. `Nc1ccc(C(=O)NCC(=O)O)cc1` gave a logP of -0.89. Compound `O=C(O)c1cc(Oc2ccc(C(F)(F)F)cc2Cl)ccc1[N+](=O)[O-]` has a logP of 3.7. In the case of `c1ccc2sc(SN(C3CCCCC3)C3CCCCC3)nc2c1`, the logP is reported as 4.8 and the solubility is reported as 0.163 µM (≈ 0.0564 µg/mL). `CC(C)N(C(=O)SCC(Cl)=CCl)C(C)C` showed a logP of 4.49. Work on `O=C(OCn1ncc2c(=O)[nH]cnc21)c1ccccc1` yielded a logP of 1.5. Compound `C=CCN1CCC(CNC(=O)c2cc3nn[nH]c3cc2OC)C1` (centres undefined) has a logP of 0.95. `CC1=CCC2CC1C2(C)C` (centres undefined) showed a logP of 4.83. With `CCSCCn1cnc2c(=N)n(C)c(=O)[nH]c21` the logP was 0. Compound `CCNC(=O)CNC(=O)c1ccccc1` has a logP of 0.58. `COc1ccc(C=[N+]([O-])C(C)(C)C)cc1` showed a logP of 1.21. `Nc1ccc(Cc2ccc(N)c(Cl)c2)cc1Cl` showed a solubility of 52 µM (≈ 13.9 µg/mL). `Cc1nc2c(N)ncnc2n1C1OC(CO)CC1F` (centres undefined) showed a logP of 0.1. Work on `Clc1ccc2ccc(Cl)cc2c1` yielded a logP of 4.81. With `COc1ccc(-c2cc(C#N)c(Cl)nc2C)cc1OC` the logP was 2.86. With `CC[N+](CC)(CC)CC.[Cl-]` the logP was -3.15. For `O=C(NCc1ccc(O)cc1)C(=O)c1c[nH]c2ccc([N+](=O)[O-])cc12`, the logP was 2.67. With `CC(Cc1ccc(C(C)(C)C)cc1)CN1C[C@@H](C)O[C@@H](C)C1` (single isomer, unassigned) the logP was 4.93. For `CC(=O)CCC(C)C`, the logP was 1.88. `O=C(c1ccccc1)n1ncc2c(=O)[nH]cnc21` gave a logP of 1.2. `c1ccc2c(c1)Cc1cccnc1-2` showed a logP of 2.96. `CC(C)OC(C)(C)C` showed a logP of 2.14. Compound `Cc1c(CNc2ccccc2)cnc2nc(N)nc(N)c12` has a logP of 2.02. Compound `Oc1ccc2c(c1)OCC1c3cc4c(cc3OC21)OCO4` (centres undefined) has a logP of 2.61. Work on `O=C(CCCN1CCC(O)(c2ccc(Cl)cc2)CC1)c1ccc(F)cc1` yielded a logP of 4.3. With `C=CCOCCO` the logP was -0.1. For `Brc1cc2oc3cc(Br)c(Br)cc3c2cc1Br`, the logP was 6.1 and the solubility was 0.145 µM (≈ 0.07 µg/mL). Compound `O=[N+]([O-])c1cc(Cl)c(Cl)c(Cl)c1Cl` has a logP of 3.93. For `N#Cc1cc(-c2ccncc2)cnc1N1CCCC1`, the logP was 2.95. With `COc1cccc(OCCN(C)C)c1` the logP was 1.69. Compound `CCCCNC(=O)CCC(NS(=O)(=O)c1ccc(C)cc1)C(=O)O` (centres undefined) has a logP of 0. Work on `CCCCc1oc(C)cc(=O)c1O` yielded a logP of 1.92. `CCOP(=O)(OCC)SCc1ccccc1` showed a logP of 3.21 and a solubility of 3840 µM (≈ 1000 µg/mL). Compound `Cc1cc(Cl)ccc1OC(C)C(=O)O` (centres undefined) has a logP of 3.13. In the case of `O=[N+]([O-])c1ccc(Cl)c([N+](=O)[O-])c1`, the logP is reported as 2.17. Compound `CC(C)CCOC(=O)c1cc(=O)[nH]c(=O)[nH]1` has a logP of 1.48. For `CC(CCC(=O)NCC(=O)O)C1CCC2C3CC(O)C4CC(O)CCC4(C)C3CCC12C` (centres undefined), the logP was 2.15. Work on `O=[N+]([O-])c1ccc2nc[nH]c2c1` yielded a logP of 1.5. In the case of `CCCCCCOC(=O)c1ccccc1C(=O)OCCCCCC`, the logP is reported as 6.82. `CCCCCOC(=O)c1cccnc1` showed a logP of 2.55. `O=C([O-])c1ccccc1O.[Na+]` showed a solubility of 781000 µM. Work on `CC(=NNC(N)=Nc1ccccc1)c1ccccc1` yielded a logP of 2.18. For `Nc1ccc(S(=O)(=O)O)c(N)c1`, the logP was -4.65. Compound `COc1ccc(CNC(=O)C(=O)c2c[nH]c3ccc([N+](=O)[O-])cc23)cc1` has a logP of 2.17. Compound `CCCCCCCCCCOC(=O)c1ccccc1C(=O)OCCCCCCCCCC` has a logP of 9.05. In the case of `CC(C)OC(=O)c1cc(=O)[nH]c(=O)[nH]1`, the logP is reported as 0.81. `[O-][N+](=Cc1ccccc1)c1ccccc1` gave a logP of 1.88. `c1ccc2cc3c4ccccc4c4ccccc4c3cc2c1` gave a logP of 6.41. For `CC(C)c1ccc(Br)c(C(C)C)c1NC(=O)CN(CC(=O)O)CC(=O)O`, the logP was 0.2.
